Reference: article PMC10893631, “Receptor-based pharmacophore modeling, molecular docking, synthesis and biological evaluation of novel VEGFR-2, FGFR-1, and BRAF multi-kinase inhibitors” (BMC Chemistry, 2024)

Experiments:
Assay in all cases: NCI SRB growth inhibition (single dose 10 µM / five-dose)
Type in all cases: cell-based, human
SF-539 = conditions: for GI50: SF-539, CNS cancer, five-dose; for inhibition at 10 µM: read-out: GI%
Outline: (§1)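 Growth inhibition is derived from seven absorbance readings per agent (Tz, C and five Ti). Where a parameter level is not reached or is exceeded, the value is given as greater or less than the highest or lowest concentration tested.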

K-562 = conditions: for GI50: K-562, Leukemia, five-dose; for inhibition at 10 µM: read-out: GI%
Outline: as §1

MALME-3 M = conditions: for GI50: MALME-3 M, Melanoma, five-dose; for inhibition at 10 µM: read-out: GI%
Outline: as §1

SK-OV-3 = conditions: for GI50: SK-OV-3, Ovarian cancer, five-dose; for inhibition at 10 µM: read-out: GI%
Outline: as §1

SK-MEL-5 = conditions: for GI50: SK-MEL-5, Melanoma, five-dose; for inhibition at 10 µM: read-out: GI%
Outline: as §1

RXF 393 = conditions: for GI50: RXF 393, Renal cancer, five-dose; for inhibition at 10 µM: read-out: GI%
Outline: as §1

HCT-116 = conditions: for inhibition at 10 µM: read-out: GI%
Outline: as §1

IGROV1 = conditions: for GI50: IGROV1, Ovarian cancer, five-dose; for inhibition at 10 µM: read-out: GI%
Outline: as §1

UO-31 = conditions: for GI50: UO-31, Renal cancer, five-dose; for inhibition at 10 µM: read-out: GI%
Outline: as §1

NCI-H226 = conditions: for GI50: NCI-H226, Non-small cell lung cancer, five-dose; for inhibition at 10 µM: read-out: GI%
Outline: as §1

NCI/ADR-RES = conditions: for inhibition at 10 µM: Homo sapiens, read-out: GI%
Outline: as §1

SW-620 = conditions: for GI50: SW-620, Colon cancer, five-dose; for inhibition at 10 µM: read-out: GI%
Outline: as §1

UACC-62 = conditions: for GI50: UACC-62, Melanoma, five-dose; for inhibition at 10 µM: read-out: GI%
Outline: as §1

SK-MEL-28 = conditions: for GI50: SK-MEL-28, Melanoma, five-dose; for inhibition at 10 µM: read-out: GI%
Outline: as §1

OVCAR-4 = conditions: for GI50: OVCAR-4, Ovarian cancer, five-dose; for inhibition at 10 µM: read-out: GI%
Outline: as §1

M14 = conditions: for GI50: M14, Melanoma, five-dose; for inhibition at 10 µM: read-out: GI%
Outline: as §1

OVCAR-3 = conditions: for GI50: OVCAR-3, Ovarian cancer, five-dose; for inhibition at 10 µM: read-out: GI%
Outline: as §1

RPMI-8226 = conditions: for GI50: RPMI-8226, Leukemia, five-dose; for inhibition at 10 µM: read-out: GI%
Outline: as §1

SF-295 = conditions: for GI50: SF-295, CNS cancer, five-dose; for inhibition at 10 µM: read-out: GI%
Outline: as §1

MDA-MB-435 = conditions: for GI50: MDA-MB-435, Melanoma, five-dose; for inhibition at 10 µM: read-out: GI%
Outline: as §1

TK-10 = conditions: for GI50: TK-10, Renal cancer, five-dose; for inhibition at 10 µM: read-out: GI%
Outline: as §1

T-47D = conditions: for GI50: T-47D, Breast cancer, five-dose; for inhibition at 10 µM: read-out: GI%
Outline: as §1

786–0 = conditions: for GI50: 786–0, Renal cancer, five-dose; for inhibition at 10 µM: read-out: GI%
Outline: as §1

[1] = NCI/ADR-RES (Ovarian cancer), 10 µM
[2] = Homo sapiens, SF-539 (CNS cancer), 10 µM
[3] = Homo sapiens, K562, K-562 (Leukemia), 10 µM
[4] = Homo sapiens, MALME-3 M (Melanoma), 10 µM
[5] = Homo sapiens, SK-OV-3 (Ovarian cancer), 10 µM
[6] = Homo sapiens, SK-MEL-5 (Melanoma), 10 µM
[7] = Homo sapiens, RXF 393 (Renal cancer), 10 µM
[8] = Homo sapiens, IGROV-1, IGROV1 (Ovarian cancer), 10 µM
[9] = Homo sapiens, UO-31 (Renal cancer), 10 µM
[10] = Homo sapiens, NCI-H226 (Non-small cell lung cancer), 10 µM
[11] = Homo sapiens, SW-620 (Colon cancer), 10 µM
[12] = Homo sapiens, UACC-62 (Melanoma), 10 µM
[13] = Homo sapiens, SK-MEL-28 (Melanoma), 10 µM
[14] = Homo sapiens, OVCAR-4 (Ovarian cancer), 10 µM
[15] = Homo sapiens, M14 (Melanoma), 10 µM
[16] = Homo sapiens, OVCAR-3 (Ovarian cancer), 10 µM
[17] = Homo sapiens, RPMI-8226 (Leukemia), 10 µM
[18] = Homo sapiens, SF-295 (CNS cancer), 10 µM
[19] = Homo sapiens, MDA-MB-435 (Melanoma), 10 µM
[20] = Homo sapiens, TK-10 (Renal cancer), 10 µM
[21] = Homo sapiens, T47D, T-47D (Breast cancer), 10 µM
[22] = Homo sapiens, 786–0 (Renal cancer), 10 µM

## N'-(2-Hydroxybenzylidene)-2-phenyl-1H-benzo[d]imidazole-5-carbohydrazide [8a]
SF-539; SF-539 (CNS cancer), 10 µM
  GI%: L (GI% > 100)
SF-539
  GI50: 2.74 µM
K-562; K-562 (Leukemia), 10 µM
  GI%: 78.58%
K-562
  GI50: 3.39 µM
MALME-3 M; MALME-3 M (Melanoma), 10 µM
  GI%: 99.32%
MALME-3 M
  GI50: 1.88 µM
SK-OV-3; SK-OV-3 (Ovarian cancer), 10 µM
  GI%: L (GI% > 100)
SK-OV-3
  GI50: 2.62 µM
SK-MEL-5; SK-MEL-5 (Melanoma), 10 µM
  GI%: 85.73%
SK-MEL-5
  GI50: 3.75 µM
RXF 393; RXF 393 (Renal cancer), 10 µM
  GI%: L (GI% > 100)
RXF 393
  GI50: 2.37 µM
HCT-116; HCT-116 (Colon cancer), 10 µM
  GI%: L (GI% > 100)
HCT-116; HCT-116, Colon cancer, five-dose
  GI50: 0.88 µM
IGROV1; IGROV1 (Ovarian cancer), 10 µM
  GI%: 82.83%
IGROV1
  GI50: 3.9 µM
UO-31; UO-31 (Renal cancer), 10 µM
  GI%: 86.22%
UO-31
  GI50: 0.6 µM
NCI-H226; NCI-H226 (Non-small cell lung cancer), 10 µM
  GI%: 93.32%
NCI-H226
  GI50: 4.02 µM
NCI/ADR-RES; [1]
  GI%: 63.15%
NCI/ADR-RES; NCI/ADR-RES, Ovarian cancer, five-dose
  GI50: 3.51 µM
SW-620; SW-620 (Colon cancer), 10 µM
  GI%: 77.39%
SW-620
  GI50: 3.48 µM
UACC-62; UACC-62 (Melanoma), 10 µM
  GI%: 75.88%
UACC-62
  GI50: 3.66 µM
SK-MEL-28; SK-MEL-28 (Melanoma), 10 µM
  GI%: 82.67%
SK-MEL-28
  GI50: 4.62 µM
OVCAR-4; OVCAR-4 (Ovarian cancer), 10 µM
  GI%: 94.42%
OVCAR-4
  GI50: 2.24 µM
M14; M14 (Melanoma), 10 µM
  GI%: 81.80%
M14
  GI50: 0.92 µM
OVCAR-3; OVCAR-3 (Ovarian cancer), 10 µM
  GI%: L (GI% > 100)
OVCAR-3
  GI50: 1.94 µM
RPMI-8226; RPMI-8226 (Leukemia), 10 µM
  GI%: 88.59%
RPMI-8226
  GI50: 1.19 µM
SF-295; SF-295 (CNS cancer), 10 µM
  GI%: L (GI% > 100)
SF-295
  GI50: 2.7 µM
MDA-MB-435; MDA-MB-435 (Melanoma), 10 µM
  GI%: 63.10%
MDA-MB-435
  GI50: 5.77 µM
TK-10; TK-10 (Renal cancer), 10 µM
  GI%: 65.04%
TK-10
  GI50: 4.53 µM
T-47D; T-47D (Breast cancer), 10 µM
  GI%: 93.65%
T-47D
  GI50: 3.38 µM
786–0; 786–0 (Renal cancer), 10 µM
  GI%: 91.76%
786–0
  GI50: 3.84 µM

## COc1cc(C=NNC(=O)c2ccc3[nH]c(-c4ccc(Cl)cc4)nc3c2)cc(OC)c1OC [8u, 2-(4-Chlorophenyl)-N'-(3,4,5-trimethoxybenzylidene)-1H-benzo[d]imidazole-5-carbohydrazide]
SF-539; [2]
  inhibition at 10 µM: > 100%
SF-539; Homo sapiens
  GI50: 2.02 µM
K-562; [3]
  inhibition at 10 µM: > 100%
K-562; Homo sapiens, K562
  GI50: 1.96 µM
MALME-3 M; [4]
  inhibition at 10 µM: > 100%
MALME-3 M; Homo sapiens
  GI50: 1.12 µM
SK-OV-3; [5]
  inhibition at 10 µM: > 100%
SK-OV-3; Homo sapiens
  GI50: 15 µM
SK-MEL-5; [6]
  inhibition at 10 µM: > 100%
SK-MEL-5; Homo sapiens
  GI50: 2.83 µM
RXF 393; [7]
  inhibition at 10 µM: > 100%
RXF 393; Homo sapiens
  GI50: 2.22 µM
HCT-116; Homo sapiens, HCT-116
  GI50: 3.26 µM
  inhibition at 10 µM: > 100%
IGROV1; [8]
  inhibition at 10 µM: 92.4%
IGROV1; Homo sapiens, IGROV-1
  GI50: 11 µM
UO-31; [9]
  inhibition at 10 µM: 41.1%
UO-31; Homo sapiens
  GI50: > 100 µM
NCI-H226; [10]
  inhibition at 10 µM: > 100%
NCI-H226; Homo sapiens
  GI50: 1.31 µM
NCI/ADR-RES; [1]
  inhibition at 10 µM: 24.3%
SW-620; [11]
  inhibition at 10 µM: > 100%
SW-620; Homo sapiens
  GI50: 4.4 µM
UACC-62; [12]
  inhibition at 10 µM: > 100%
UACC-62; Homo sapiens
  GI50: 1.24 µM
SK-MEL-28; [13]
  inhibition at 10 µM: > 100%
SK-MEL-28; Homo sapiens
  GI50: 1.83 µM
OVCAR-4; [14]
  inhibition at 10 µM: > 100%
OVCAR-4; Homo sapiens
  GI50: 2.35 µM
M14; [15]
  inhibition at 10 µM: > 100%
M14; Homo sapiens
  GI50: 3.77 µM
OVCAR-3; [16]
  inhibition at 10 µM: > 100%
OVCAR-3; Homo sapiens
  GI50: 2.28 µM
RPMI-8226; [17]
  inhibition at 10 µM: > 100%
RPMI-8226; Homo sapiens
  GI50: 3.21 µM
SF-295; [18]
  inhibition at 10 µM: > 100%
SF-295; Homo sapiens
  GI50: 4.18 µM
MDA-MB-435; [19]
  inhibition at 10 µM: > 100%
MDA-MB-435; Homo sapiens
  GI50: 4.13 µM
TK-10; [20]
  inhibition at 10 µM: 62.6%
TK-10; Homo sapiens
  GI50: 28.8 µM
T-47D; [21]
  inhibition at 10 µM: > 100%
T-47D; Homo sapiens, T47D
  GI50: 3.48 µM
786–0; [22]
  inhibition at 10 µM: > 100%
786–0; Homo sapiens
  GI50: 4.88 µM

## O=C(NN=Cc1cccc(O)c1)c1ccc2[nH]c(-c3ccccc3)nc2c1 [8b, N'-(3-Hydroxybenzylidene)-2-phenyl-1H-benzo[d]imidazole-5-carbohydrazide]
SF-539; [2]
  inhibition at 10 µM: 13.7%
K-562; [3]
  inhibition at 10 µM: 21.4%
MALME-3 M; [4]
  inhibition at 10 µM: 39.7%
SK-OV-3; [5]
  inhibition at 10 µM: 25.6%
SK-MEL-5; [6]
  inhibition at 10 µM: 10.9%
RXF 393; [7]
  inhibition at 10 µM: < 5%
HCT-116; Homo sapiens, HCT-116
  inhibition at 10 µM: < 5%
IGROV1; [8]
  inhibition at 10 µM: 13%
UO-31; [9]
  inhibition at 10 µM: 21.6%
NCI-H226; [10]
  inhibition at 10 µM: < 5%
NCI/ADR-RES; [1]
  inhibition at 10 µM: < 5%
SW-620; [11]
  inhibition at 10 µM: < 5%
UACC-62; [12]
  inhibition at 10 µM: < 5%
SK-MEL-28; [13]
  inhibition at 10 µM: < 5%
OVCAR-4; [14]
  inhibition at 10 µM: 12.4%
M14; [15]
  inhibition at 10 µM: < 5%
OVCAR-3; [16]
  inhibition at 10 µM: 11.1%
RPMI-8226; [17]
  inhibition at 10 µM: 9.59%
SF-295; [18]
  inhibition at 10 µM: < 5%
MDA-MB-435; [19]
  inhibition at 10 µM: 5.45%
TK-10; [20]
  inhibition at 10 µM: < 5%
T-47D; [21]
  inhibition at 10 µM: 50.9%
786–0; [22]
  inhibition at 10 µM: 5.43%
